Laboratory results from patent USRE42394E1, “Fungicidal compositions for the enhancement of turf quality” (Bayer CropScience Inc., priority 1995, dated 2011).

Tested on: bentgrass cultivar “Penncross”
Test: Turf quality and color ratings on fungicide-treated bentgrass field plots (decline from crown and root rot)
Format: in vivo
Conditions: summary statements of the text on the field tests
Method: Fungicides were evaluated on a one-year-old stand of the bentgrass cultivar “Penncross” planted in Raleigh, N.C., U.S.A. The bentgrass was planted in native soil and maintained under conditions similar to a golf green with a mowing height of 0.635 cm (.25 inches).
The fungicides were applied separately and in combination at labelled rates to 1.5 m×1.5 m (5 ft×5 ft) plots of bentgrass prior to evidence of any decline in turf quality due to crown and root rot. A CO2 backpack sprayer was used to apply the fungicide treatments at (30 lbs psi) using TEEJET™ 8004 nozzles to apply 9.5 liters (2.5 gallons) of fungicide dilutions per 93 square meters (1000 sq ft). The fungicides were initially applied and subsequently reapplied according to a 14 day schedule. In some experiments, an electrical pump sprayer was used to apply the treatments at 30 psi using a Teejet 8004 nozzle.
Turf quality, color and percent disease ratings were recorded weekly, based on a scale from 1-9, with 9 being ideal turf quality and color and 1 being all turf dead. The percent disease ratings were calculated based on the percent of area in each plot showing symptoms of brown patch. Turf quality and color ratings were used as an indicator of the health of the bentgrass and the amount of decline associated with crown and root rot.

[Cu+2].c1ccc2c(c1)-c1nc-2nc2[n-]c(nc3nc(nc4[n-]c(n1)c1ccccc41)-c1ccccc1-3)c1ccccc21 [Pigment Blue 15]
turf quality and color, comparison in words: enhances the activity of the ALIETTE™ and mancozeb in a synergistic interaction
